The source of these data is ChEMBL document CHEMBL5661976 (Cancer Res, 2007).

Each structure is given as a SMILES string. Calls of active or inactive are those of the source. The rule behind the calls is not given here.

The target of experiment [1] is Receptor tyrosine-protein kinase erbB-2 (Mus musculus, UniProt P70424). Description: Inhibition of ERBB2 expressed in mouse NIH3T3 cells. It counts as cell-based.
The next experiment relates to NCI-H3255. Description: Induction of apoptosis in human NCI-H3255 cells assessed as increase in cleavage of PARP at 1 micromol/L incubated for 72 hrs by Western blotting analysis. The experiment is classed as functional, cell-based. The settings on record: dose 1.0 µmol/L. (In general: A western blot detects proteins with antibodies after separation by electrophoresis.)

The target of experiment [2] is Receptor tyrosine-protein kinase erbB-3 (Homo sapiens) (UniProt P21860). Description: Inhibition of ERBB3 phosphorylation in human HCC827 cells expressing GFP at 1 to 10000 nmol/L incubated for 12 hrs by Western blotting analysis. The experiment is classed as cell-based. The settings on record: dose 1-10000 nmol/L.
Sequence of Receptor tyrosine-protein kinase erbB-3 (Homo sapiens) (P21860 whole entry): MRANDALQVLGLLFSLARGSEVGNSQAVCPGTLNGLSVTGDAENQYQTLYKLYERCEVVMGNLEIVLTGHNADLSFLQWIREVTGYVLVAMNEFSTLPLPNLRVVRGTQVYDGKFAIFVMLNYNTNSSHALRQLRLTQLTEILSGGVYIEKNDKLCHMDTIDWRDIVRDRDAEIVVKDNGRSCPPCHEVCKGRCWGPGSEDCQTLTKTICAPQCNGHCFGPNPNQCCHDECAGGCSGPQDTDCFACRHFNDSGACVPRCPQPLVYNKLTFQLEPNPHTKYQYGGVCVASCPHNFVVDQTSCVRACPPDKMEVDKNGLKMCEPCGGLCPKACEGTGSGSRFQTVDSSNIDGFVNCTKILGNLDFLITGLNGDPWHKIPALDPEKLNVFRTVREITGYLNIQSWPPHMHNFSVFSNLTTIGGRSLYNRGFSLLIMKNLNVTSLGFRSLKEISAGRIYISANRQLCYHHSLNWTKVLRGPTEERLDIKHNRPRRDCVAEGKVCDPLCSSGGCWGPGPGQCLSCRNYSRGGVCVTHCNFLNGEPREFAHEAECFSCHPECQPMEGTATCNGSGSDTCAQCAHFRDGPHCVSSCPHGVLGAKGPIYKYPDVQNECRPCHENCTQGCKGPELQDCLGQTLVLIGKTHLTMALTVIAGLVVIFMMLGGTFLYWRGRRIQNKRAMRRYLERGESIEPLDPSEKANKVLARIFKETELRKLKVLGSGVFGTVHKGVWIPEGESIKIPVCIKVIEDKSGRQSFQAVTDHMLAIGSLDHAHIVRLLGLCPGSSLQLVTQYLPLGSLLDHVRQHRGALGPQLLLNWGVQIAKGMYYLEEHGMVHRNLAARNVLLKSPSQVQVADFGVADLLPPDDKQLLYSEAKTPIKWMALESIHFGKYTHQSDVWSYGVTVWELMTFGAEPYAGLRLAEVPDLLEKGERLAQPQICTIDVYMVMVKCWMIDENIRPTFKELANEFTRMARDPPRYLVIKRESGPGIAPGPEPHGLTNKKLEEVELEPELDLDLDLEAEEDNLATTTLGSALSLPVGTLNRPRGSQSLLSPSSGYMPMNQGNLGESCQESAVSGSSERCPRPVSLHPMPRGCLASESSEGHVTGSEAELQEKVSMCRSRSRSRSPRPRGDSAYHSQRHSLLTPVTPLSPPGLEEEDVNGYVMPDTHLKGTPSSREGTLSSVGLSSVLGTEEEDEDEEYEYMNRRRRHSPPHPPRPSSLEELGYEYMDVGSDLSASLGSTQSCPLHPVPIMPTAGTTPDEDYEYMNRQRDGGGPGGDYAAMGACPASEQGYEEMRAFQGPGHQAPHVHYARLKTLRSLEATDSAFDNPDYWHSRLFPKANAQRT

Sequence of Receptor tyrosine-protein kinase erbB-2 (P70424 whole entry): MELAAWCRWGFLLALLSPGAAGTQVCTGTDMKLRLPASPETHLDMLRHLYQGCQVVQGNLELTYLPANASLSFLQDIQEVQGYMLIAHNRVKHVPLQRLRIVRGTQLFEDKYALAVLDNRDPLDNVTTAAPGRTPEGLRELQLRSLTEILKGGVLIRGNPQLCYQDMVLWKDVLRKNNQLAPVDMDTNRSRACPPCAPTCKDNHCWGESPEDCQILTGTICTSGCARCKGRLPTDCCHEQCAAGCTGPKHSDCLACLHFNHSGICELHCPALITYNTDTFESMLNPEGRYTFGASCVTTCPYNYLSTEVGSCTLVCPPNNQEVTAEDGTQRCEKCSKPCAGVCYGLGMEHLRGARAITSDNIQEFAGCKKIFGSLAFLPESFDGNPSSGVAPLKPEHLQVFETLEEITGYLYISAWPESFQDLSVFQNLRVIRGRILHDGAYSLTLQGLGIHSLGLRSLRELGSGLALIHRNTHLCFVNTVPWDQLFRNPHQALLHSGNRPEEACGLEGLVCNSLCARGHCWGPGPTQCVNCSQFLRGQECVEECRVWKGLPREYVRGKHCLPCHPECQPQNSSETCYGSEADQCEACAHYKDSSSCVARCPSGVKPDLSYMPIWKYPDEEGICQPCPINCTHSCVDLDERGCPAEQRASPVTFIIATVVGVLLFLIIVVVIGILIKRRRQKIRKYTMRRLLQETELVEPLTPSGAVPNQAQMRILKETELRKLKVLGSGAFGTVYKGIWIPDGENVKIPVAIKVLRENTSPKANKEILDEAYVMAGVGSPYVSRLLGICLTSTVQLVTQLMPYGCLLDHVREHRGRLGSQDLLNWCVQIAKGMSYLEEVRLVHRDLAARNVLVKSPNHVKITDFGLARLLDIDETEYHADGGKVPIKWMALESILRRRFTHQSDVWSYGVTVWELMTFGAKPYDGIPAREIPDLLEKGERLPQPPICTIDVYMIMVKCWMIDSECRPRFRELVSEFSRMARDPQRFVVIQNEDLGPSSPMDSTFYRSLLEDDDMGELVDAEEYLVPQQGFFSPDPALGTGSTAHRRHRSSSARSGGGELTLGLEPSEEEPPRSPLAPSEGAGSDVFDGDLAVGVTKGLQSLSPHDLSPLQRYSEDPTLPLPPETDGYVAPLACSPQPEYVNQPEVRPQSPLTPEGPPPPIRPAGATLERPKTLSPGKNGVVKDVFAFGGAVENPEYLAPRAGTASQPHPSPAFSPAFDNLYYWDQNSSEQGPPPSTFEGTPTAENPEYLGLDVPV

With `C#Cc1cccc(Nc2ncnc3cc(OCCOC)c(OCCOC)cc23)c1` [ERLOTINIB], it took 299 nM to reach half-maximal inhibition in experiment [1] (IC50).

For the molecule `COc1cc2ncnc(Nc3ccc(F)c(Cl)c3)c2cc1OCCCN1CCOCC1` [GEFITINIB], the IC50 – broadly, the concentration that inhibits the measured activity by half – in experiment [1] is more than 500 nM. In the experiment with NCI-H3255, the outcome was Active. For the same molecule, in experiment [2], the inhibition result was “Active”.
